{"source": "patent US20230040415A1", "about": "(PureTech LYT 100, Inc., priority 2020, published 2023)", "key": {"[1]": {"test": "MAD study adverse event profile", "type": "in vivo", "text": "All subjects in Part 1 and Part 2 will be monitored for safety (including assessment of chemistry, haematology and urinalysis parameters, electrocardiograms [ECGs], vital signs and adverse events [AEs]) and samples will be collected for assessment of PK at predefined time points pre and post-dose as delineated in the Schedule of Events."}, "[2]": {"test_system": "mouse tail model of lymphedema", "test": "Mouse tail model of lymphedema", "type": "in vivo", "settings": "once daily oral gavage, by 5 weeks; 7 animals per group"}, "L929 cells [3]": {"test_system": "L929 cells", "test": "TGF-induced collagen synthesis in L929 cells, 96-well plate format (SIRCOL)", "type": "cell-based", "settings": "500 μM", "experimental": "Five thousand L929 cells were plated in complete DMEN and incubated until confluency for 3 days. Medium was removed and complete DMEM containing Prolin (20 μg/ml) and ascorbic acid (10 μM) was added. […] Cells were further incubated for 72 hrs. Supernatant was removed, 0.5% gluteraldehyde was added for 30 min at RT, removed, washed 3× with dd water, 0.5 M acetic acid was added for 30 min at RT, removed, washed with water, air dried and 100 μl SIRCOL dye was added for 5 h at RT. Dye was removed, plate was washed extensively under running water, air dried and 200 μl of 0.5 M NaOH was added, plates were shaken at RT for 1 h, and OD was determined at 600 nm."}, "L929 cells [4]": {"test_system": "L929 cells", "test": "TGF-induced soluble fibronectin synthesis in L929 cells (ELISA)", "type": "cell-based", "settings": "500 μM, in the absence and presence of TGF-β-induction", "from_the_text": "Fibronectin is another important component of fibrotic lungs as it is induced by TGF-β and functions both as a structural component of extra cellular matrix as well as well as a ligand for integrin receptors. Just like soluble collagen, binding of fibronectin to integrin receptors induces the proliferation of fibroblast and epithelial cells of the lungs."}, "NASH mice": {"test_system": "NASH mice", "test": "NASH mouse model (streptozotocin + high fat diet), liver histology", "type": "in vivo", "settings": "n = 8", "from_the_text": "Non-alcoholic steatohepatitis (NASH) is characterized by lobular inflammation, hepatocyte ballooning and degeneration progressing to liver fibrosis. […] In addition, nine non-NASH mice were fed with a normal diet and monitored."}, "[5]": {"settings": "human, in vivo", "quoted_text": "All Part 1 cohorts will be dosed every 12 hours with food for 5 days.\nDuring the treatment period (Day 1 through Day 5), subjects will be administered their assigned study medication BID, every 12 h±0.25 h (with approximately 240 mL of non-carbonated water), 30 minutes after the start of consumption of their standardised breakfast or dinner (12 h apart). A standardised lunch will be served >4 h post breakfast and >4 h prior to dinner. An evening snack will be served >3 h following evening study medication administration. No additional fluids will be allowed during the 1 h pre- and post-doses. On Day 6, subjects will replicate mealtimes as scheduled on Day 1-5. To ensure study drug dosing every 12 hours, here is an example of meal and dosing schedule in Part 1: • Breakfast: meal to be served 30 mins prior to AM dosing. Breakfast must be completed within 30 mins of start time. • Lunch: meal to be served at least 4 h post-AM study drug dose. • Dinner: meal to be served at least 11.5 h post-AM dose and served 30 minutes prior to PM study drug dose. • Evening snack: Snack to be served at least 15 h post-AM dose (at least 3 h post-PM dose).\nIn Part 1, blood samples (4 mL each) for PK will be collected for Cohorts 1, 2, 3, 4, and 6 at specified times (hours) at each as follows: • Day 1 and Day 5: 0 (pre-dose), 0.5, 1, 1.5, 2, 2.5, 3, 3.5, 4, 6, 8, 12 (pre-dose), 13, 14, 15, 16, 18 h • Day 2, Day 3 and Day 4: 0 (pre-morning-dose) and 12 h (pre-evening-dose) • Day 6: 12, 18, 24 and 36 h post-last dose • Day 7: 48 h (post-last dose)\nPharmacokinetics for Day 1 to 3 in Part 2 (fed state) will be compared to PK for Day 1 to Day 3 in Part 2 (fasted state). Plasma PK parameters (non-compartmental or compartmental analysis as appropriate) will include, but are not limited to: • Following single dose: Tmax, tlag, Cmax, AUC0-4, AUC0-last, AUC0-inf, lambda z, % AUCext, CL/F, Vz/F, Cmax/D, AUC0-last/D, AUC0-inf/D and MRT (D is dose) • After repeated doses: Ctrough, Ctrough/D • Following repeated doses on last day: Tmax, Cmax, Cavg, tlag, t1/2, AUC0-4, AUC0-last, AUC0-inf, lambda z, % AUCext, CLss/F, Vzss/F, MRT, PTF, Rac(AUC), Rac(Cmax), Cmax/D, AUClast/D, AUC0-inf/D and Rac (accumulation ratio) Part 3 (Patients with Secondary Lymphoedema Post-Axillary/Post-Sentinel Node Dissection)"}, "[6]": {"test_system": "Primary Mouse Lung Fibroblasts", "test": "Survival / TGF-β-induced proliferation of Primary Mouse Lung Fibroblasts (MTT)", "type": "cell-based", "settings": "500 μM, 72 hrs", "experimental": "Primary Mouse lung fibroblast were prepared as follows. One lung was removed from 2 months old male BalbC Mouse, perfused with sterile PBS, minced and incubated in 2 ml of serum free Dulbecco's Modified Eagle's Medium (DMEM) containing 100 μg/ml of collagenase I for one hour at 37° C. Each sample was centrifuged at 1500 r.p.m (revolution per minute) for 5 minutes, washed three times with PBS and the final cellular pellet was resuspended in DMEM supplemented with 10% serum and Pen/Strep, and incubated in 150 mm plates at 37° C. with 80% humidity and […]. The growth medium was removed and fresh medium was added every day for 10 days.\nAt the end of 10-day incubation period above, lung fibroblasts were confluent. […] One hundred μL of the growth medium was removed and 20 μL of MTT stock solution (prepared in PBS at 5.5 mg/ml concentration) was added and cells were incubated for 4 hrs, then 100 μl of DMSO was added, and absorbance of developed color was monitored at 540-690 nm."}, "[7]": {"test_system": "Primary Mouse Lung Fibroblasts", "test": "TGF-β-induced soluble collagen ELISA", "type": "cell-based", "settings": "Fibroblast", "experimental": "Approximately 5,000 primary mouse lung fibroblasts were plated in complete DMEM in 96 well plates and incubated for 3 days at which time the cultures achieved confluency. After cells reached to confluency, medium was removed and fresh DMEM supplemented with ascorbic acid (20 μg/ml) and prolin (10 μM) was added. […] One hour later, TGF-β (5 ng/ml) was added to the appropriate cultures at a final concentration. After 72 hours, 200 μl samples of the supernatant were placed onto an ELISA plate and incubated overnight. After blocking with %1 BSA for 2 h, plates were incubated with either an anti-collagen type I antibody or an anti-fibronectin antibody.\nThe plates were washed after 1 hour and incubated with secondary horseradish peroxidase-conjugated antibodies (anti-goat for the collagen antibody, anti-rabbit for the fibronectin antibody). After a series of washing steps the color reagent TMB (3,3′,5,5′-Tetramethylbenzidine) was added and 15 minutes later the reactions were terminated with equal volumes of 2 N H2SO4. The levels of soluble collagen and fibronectin were determined by evaluating absorbance at 450 nm."}, "L929 cells [8]": {"test_system": "L929 cells", "test": "TGF-induced soluble collagen synthesis in L929 cells (ELISA)", "type": "cell-based", "settings": "500 μM", "experimental": "Five thousand L929 cells were plated in complete DMEN and incubated until confluency for 3 days. Medium was removed and complete DMEM containing Prolin (20 μg/ml) and ascorbic acid (10 μM) was added. […] Cells were further incubated for 72 hrs. 200 μl supernatant of 96-well SIRCOL plate was placed onto ELISA plate and incubated 0/N. Next day, supernatant was removed and 100 ul of 1% BSA in PBST was added and incubated for 2 h at RT, BSA was removed, plate was washed 3× with 200 μl of PBST, and anti-collagen type I a.b was added at 1:2000 dilution (prepared in %1 BSA in PBST), incubated at RT for 1 h, primary a.b was removed, plate was washed 3× with 200 μl PBST, and secondary anti-goat HRP was added at 1:2000 dilution, incubate at RT for 1 h, removed, plate was washed 3× with 200 μl PBST and 100 μl of TMB solution was added for color development for 15 min, then 100 μl of 2 N H2SO4 was added to stop the reaction and O.D of developed yellow color was determined at 450 nm."}, "[9]": {"test_system": "Primary Mouse Lung Fibroblasts", "test": "TGF-β-induced insoluble collagen synthesis, 6-well plate format (Sircol)", "type": "cell-based", "settings": "Fibroblast, TGF-β 5 ng/ml, 72 hrs, p=0.026, read-out: inhibition of TGF-β-induced total collagen", "experimental": "One hundred thousand Primary Mouse Lung Fibroblasts were plated in 6-well plates and incubated in complete DMEM until they reached confluency. The incubation medium was removed and complete DMEM containing Prolin (10 μM) and Ascorbic acid (20 μg/ml) was added.\nSupernatant was removed, cells were washed with cold PBS, 1 ml Sircol reagent was added. The Sircol reagent contains the collagen binding dye Sirius red. The cells were scraped off with Sircol reagent and samples were shaken for 5 h at room temperature (RT), centrifuged at 10,000 rpm for 5 min, supernatant was removed, the pellet was washed in 0.5 M acetic acid to remove unbound dye, and recentrifuged at 10,000 rpm for 5 min, supernatant was removed and the final pellet was dissolved in 1 ml 0.5M NaOH and shaken at RT for 5 h. A sample of 100 μl of resultant solution was placed in 96-well. The color reaction was assessed by optical density at a wave length of 600 nm."}}}
{"smiles": "[2H]C([2H])([2H])c1ccc(=O)n(-c2ccccc2)c1", "note": "[LYT-100, 5-(methyl-d3)-1-phenylpyridin-2-(1H)-one]", "values": [{"measurement": "tolerability of 750 mg dosing", "setting": "[1]; 750 mg BID", "value": "surprisingly well tolerated"}, {"measurement": "most common adverse events", "setting": "[1]; blinded MAD data", "value": "headache and mild abdominal discomfort"}, {"measurement": "severity of adverse events", "setting": "[1]; blinded MAD data, 100-1000 mg BID, 5 days", "value": "mild and transient"}, {"measurement": "tail swelling vs carboxymethylcellulose control", "setting": "[2]", "value": "significantly reduced swelling"}, {"measurement": "total collagen level in the absence of TGF-β induction", "setting": "L929 cells [3]", "value": "significantly inhibited or reduced"}, {"measurement": "TGF-β-induced total collagen levels", "setting": "L929 cells [3]; TGF-β 5 ng/ml, 72 hrs", "value": "significantly inhibited or reduced"}, {"measurement": "soluble fibronectin levels", "setting": "L929 cells [4]", "value": "significantly reduced"}, {"measurement": "NAS (mean ± SD)", "setting": "NASH mice; 30 mg/kg twice daily oral", "value": "4.0 ± 1.1"}, {"measurement": "Hepatocyte ballooning score 2 (Many cells/prominent ballooning), number of animals", "setting": "NASH mice", "value": 8}, {"measurement": "Lobular Inflammation score 1 (<2 foci/200x), number of animals", "setting": "NASH mice", "value": 5}, {"measurement": "Lobular Inflammation score 2 (2-4 foci/200x), number of animals", "setting": "NASH mice", "value": 3}, {"measurement": "Steatosis score 0 (<5%), number of animals", "setting": "NASH mice", "value": 4}, {"measurement": "Steatosis score 1 (5-33%), number of animals", "setting": "NASH mice", "value": 3}, {"measurement": "Steatosis score 2 (>33%-66%), number of animals", "setting": "NASH mice", "value": 1}, {"measurement": "dose dependence of AUC96-108", "setting": "[5]", "value": "linear dose proportionality"}, {"measurement": "survival of PMLF alone", "setting": "[6]; without TGF-β", "value": "did not affect the survival"}, {"measurement": "diminution of TGF-β-induced proliferation of PMLF", "setting": "[6]; TGF-β 5 ng/ml, not statistically significant (p=0.19)", "value": 10, "unit": "%"}, {"measurement": "inhibition at 500 µM", "setting": "[7]; TGF-β 5 ng/ml, 72 hours, p=0.0001, read-out: inhibition of TGF-β-dependent increase of soluble collagen", "value": 36, "unit": "%"}, {"measurement": "inhibition at 500 µM", "setting": "[7]; no TGF-β, p=0.0115, read-out: inhibition of background level of soluble collagen", "value": 23, "unit": "%"}, {"measurement": "soluble collagen levels in the absence of TGF-β-induction", "setting": "L929 cells [8]", "value": "significantly reduced"}, {"measurement": "TGF-β-induced soluble collagen levels", "setting": "L929 cells [8]; TGF-β 5 ng/ml, 72 hrs", "value": "significantly inhibits"}, {"measurement": "inhibition at 500 µM", "setting": "[9]", "value": 15, "unit": "%"}]}
